Laboratory results as given in patent US20020058266A1, “EF-Tu protein encoded on the plastid DNA of the malaria parasite and protein synthesis inhibitors effective as anti-malarial compounds” (priority 1997, published 2002).
*1 amine or outer side, *2 acyl side, *3 side chain or, on linkers, in order; H or OH if unused. Where a SMILES comes first, the peptide text is derived from it. Bridges are numbered along the chain shown (N, C = ends). [ ]: non-standard residue; d: D form. The star is where a group is joined. X1 = NC1=N[C@@H]([C@H](N[*:1])C(=O)[*:2])C[C@H](O)N1; ΔAla(Z-3-ureido) = NC(=O)N/C=C(\N)C(=O)O; β3hOrn = NCCC[C@H](N)CC(=O)*; Dap = NC[C@H](N)C(=O)O

What was measured:
[1] = system: P.falciparum; assay: Vital staining with rhodamine 123 (mitochondrial staining of parasites); assay type: cell-based, Plasmodium falciparum; settings: data not shown
Method: (§1) Kirromycin: Kirromycin-resistant forms of bacterial EF-Tu are modified at one of seven amino acids along the opposing interfaces of domains I and III (Mesters et al 1994 and Abdulkarim et al 1994) and Pf EF-Tupl has a substitution at one of these sites (A375S-E.coli numbers) that could potentially confer resistance to kirromycin. To test this possibility, kirromycin (Mocimycin), its methylated derivative Aurodox or its disaccharide derivative Efrotomycin were incubated with erythrocytic stages of P.falciparum grown in cultures over a 36 hr period. The incorporation of both ^3H-hypoxanthine and ^14C-isoleucine was inhibited in a dose-dependent fashion, maximum inhibition being achieved at 100 μM kirromycin (FIG. 5). […] Once maximal depression of incorporation had been reached at any particular dose of drug, residual incorporation continued at a uniform rate thereafter. Vital staining with rhodamine 123, a fluorescent dye that concentrates within the mitochondrion (Divo et al. 1985) confirmed the parasiticidal effect, loss of specific mt staining being evident within 2-3 hours (data not shown). […] Blood cultures of P.falciparum were about 10 times more sensitive to the antibiotic than a gram-positive bacterium (Corynebacterium spp) used in parallel bioassays.

[2] = system: P.falciparum; assay: Treatment of parasites, removal of antibiotic by washing and 2 weeks follow-up in vitro; assay type: cell-based, Plasmodium falciparum; settings: 1 mM for 1.5 cell cycles, washing, follow-up for 2 weeks in vitro
[3] = system: P.chabaudi; assay: Mice infected with P.chabaudi; assay type: in vivo; settings: for development of the infection in mice: intraperitoneally 0.1 ml of 100 mM
Method: The solid line is for aurodox, the dotted line is for mocimycin and the dashed line is for no drug controls. The arrows on the x-axis indicate days on which three 0.1 ml 100 mM ip injections were given.
On the basis of these findings, preliminary studies were carried out on mice infected with P.chabaudi. In the first experiment, mice were infected and inoculated on the same day intraperitoneally with 0.1 ml of 100 mM Aurodox, a dose calculated to mimic the maximal inhibitory effect observed in vitro. […] In a single experiment.

[4] = system: Corynebacterium spp; assay: Parallel bioassay with a gram-positive bacterium; assay type: cell-based; settings: parallel bioassays
Method: as §1

[5] = system: erythrocytic stages of P.falciparum; assay: Incorporation of radiotracers (3H-hypoxanthine, 14C-isoleucine) by P.falciparum growing in blood cultures; assay type: cell-based, Plasmodium falciparum; settings: for concentration at which maximum inhibition of radiotracer incorporation was achieved: cultures over a 36 hr period
Method: Antibiotics—Samples of Mocimycin (kirromycin), Aurodox (N-methylated kirromycin), and Efrotomycin (a glycoside of kirromycin) were used. Aurodox was dissolved in RPMI-Albumax medium (Grande et al 1977), kirromycin was dissolved in RPMI made alkaline by addition of 1M NaOH, and efrotomycin was dissolved in ethanol before dilution in culture medium. Enacyloxin IIA was dissolved in 1% NaHCO3 prior to dilution in RPMI-Albumax medium. The antibiotic GE2270A was dissolved in 100% DMSO before dilution in culture medium. Fusidic acid (Sigma) was dissolved directly in culture medium, and thiostrepton (Sigma) in 100% DMSO before dilution in culture medium. A hemisuccinate form of thiostrepton was prepared as a potassium salt, according to Bodanszky et al 1965. Incorporation of radiotracers by P.falciparum growing in blood cultures in the presence and absence of drugs was carried out as described (Strath et al 1993).
as §1

[6] = in vivo; cited from earlier work
[7] = target: T1, heterologously expressed Pf EF-Tupl (Plasmodium falciparum, UniProt Q25820); assay: Band shift in native polyacrylamide gel with expressed Pf EF-Tupl; assay type: binding; settings: 100 μM antibiotic, 100 μM GDP, native 12% polyacrylamide gel
T1 construct: one clone in JM109 contained the complete insert; GST (cleaved yes); made in house; host or cells: E. coli JM109 (pGEX)
Method: FIG. 13 contains immunoblots showing that binding of antibiotics modifies migration of EF-Tu.GDP in native polyacrylamide gels. Two segments of the same gel show A) heterologously expressed Pf EF-Tupl protein detected with a malaria peptide-specific antibody and B) E.coli EF-Tu detected with a specific antibody (Breidenbach et al 1990). Lanes without antibiotics (1 and 5), lanes with 100 μM antibiotic: GE2270A (2 and 6), enacyloxin lla (3 and 7), kirromycin (4 and 8). Arrows indicate uncomplexed EF-Tu.
Drug binding—Thiostrepton binding to short rRNA transcripts generated in vitro was assayed according to Ryan et al 1991, as modified by Clough et al 1997. […] Before […], samples were incubated on ice for 15 mins in 50 mM imidazole acetate (pH 7.6), 10 mM NH4Cl, 10 mM MgCl2, 1 mM […] and 100 μM GDP, in a final volume of 20 μl.
The material tufA gene in pGEX was expressed as an insoluble fusion protein in E.coli JM 109. The protein was detected either with antibodies to the GST tag or with antibodies to a specific peptide sequence in domain I ([…]) not found on E.coli EF-Tu. Washed inclusion bodies were dissolved and refolded by dilution (Lin et al 1991).

[8] = system: Pf 28S cytosolic rRNA (cytosolic ribosomes); assay: Puromycin shift of polysomes on sucrose gradients, cytosolic rRNA probe; assay type: biochemical, Plasmodium falciparum; settings: 2 mM puromycin; anisomycin 3 mM pre-treatment
Method: (§2) Polysome preparation and puromycin shift—P.falciparum was grown in blood cultures (Trager et al 1976) and ribosomes prepared as described (Sherman et al 1975). Parasitized erythrocytes were lysed for 1 hr on ice in a buffer containing 0.14% Nonidet P-40 (Trade Name), 25 mM KCl, 10 mM MgCl2, 380 mM-sucrose, 6.5 mM β-mercaptoethanol and 50 mM Tris HCl, pH 7.6. The lysate was centrifuged×3 at 10,000 g for 10 min at 4° C. to remove genomic DNA and other cell debris before further centrifugation at 105,000 g for 1 hr in an SW40 rotor (Trade Name, Beckman) at 4° C. The resulting pellet was resuspended in 25 mM KCl, 5 mM MgCl2 and 50 mM Tris HCl (pH 7.6) and homogenized by hand (×50 strokes) with a glass dounce homogenizer (Wheatstone, USA). The suspension was centrifuged at 10,000 g for 10 min at 4° C. and the crude pellet discarded before further centrifugation for 2 hr at 105,000 g in an SW55 rotor (Beckman) at 4° C. The pellet was resuspended in 10 mM Tris HCl, 10 mM MgCl2, 100 mM KCl and homogenized again to give a suspension of ribosomes. […]
(§3) In an experiment with RNase (Cox 1969), total polysomes were incubated with a range of concentrations of RNase (1-13 ng ml^−1 ribosomes, Boehringer) prior to centrifugation for 30 min at 26° C. […] Hybridization signals were quantitated using a Molecular Dynamics phosphor imager. […]

[9] = system: Pf 16S rRNApl (plastid ribosomes); assay: Puromycin shift of polysomes on sucrose gradients, plastid rRNA probe; assay type: biochemical, Plasmodium falciparum; settings: 2 mM puromycin; anisomycin 3 mM pre-treatment
Method: as §2, §3

[10] = system: eukaryotic cells; settings: at 100 μM; cited from earlier work
[11] = 3H-hypoxanthine and 14C-isoleucine

T1 sequence (Q25820 whole entry): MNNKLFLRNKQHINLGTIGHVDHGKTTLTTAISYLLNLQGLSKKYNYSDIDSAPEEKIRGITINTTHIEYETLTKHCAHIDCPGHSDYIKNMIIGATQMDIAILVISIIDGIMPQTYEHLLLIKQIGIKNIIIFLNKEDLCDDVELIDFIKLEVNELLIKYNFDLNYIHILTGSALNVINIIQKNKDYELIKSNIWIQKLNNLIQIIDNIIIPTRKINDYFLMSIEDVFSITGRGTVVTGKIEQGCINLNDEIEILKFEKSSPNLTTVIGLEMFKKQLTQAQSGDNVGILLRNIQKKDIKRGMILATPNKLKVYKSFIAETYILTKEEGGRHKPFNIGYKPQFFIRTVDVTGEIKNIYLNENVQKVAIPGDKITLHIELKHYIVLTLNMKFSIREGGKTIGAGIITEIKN

What does the source list for C/C=C\C=C\[C@@H]1O[C@](O)([C@H](CC)C(=O)NC/C=C/C=C(\C)[C@@H](OC)[C@@H](C)[C@@H]2O[C@H](/C=C/C=C/C=C(\C)C(=O)c3c(O)ccn(C)c3=O)[C@H](O)[C@@H]2O)[C@H](O)[C@H](O)C1(C)C [Aurodox, 1-methylmocimycin]?
loss of specific mt staining evident, time [1]: 2 to 3 h; parasite death or stasis [2]: parasite death rather than stasis; development of the infection in mice [3]: lag in development of the infection compared with untreated controls; sensitivity of P.falciparum blood cultures relative to Corynebacterium spp [4]: about 10 times; first inhibitory effects on ring stage parasites, time after exposure ([5]; synchronized cultures): as early as five hours; inhibitory effects maximal, time of exposure ([5]; synchronized cultures, ring stage parasites): 10 h

Which “oral absorption and plasma half-life” value [6] does the source give for C/C=C/C=C/[C@@H]1O[C@](O)([C@H](CC)C(=O)NC/C=C/C=C(\C)[C@@H](OC)[C@@H](C)[C@@H]2O[C@H](/C=C/C=C/C=C(\C)C(=O)c3c(O)ccn(C)c3=O)[C@H](O)[C@@H]2O)[C@H](O)[C@H](O[C@@H]2O[C@H](C)[C@@H](O[C@@H]3O[C@@H](C)[C@H](OC)[C@@H](O)[C@H]3OC)[C@@H](OC)[C@H]2O)C1(C)C [Efrotomycin] here?
The value was “rapid oral absorption and prolonged plasma half-life”.

Which “mobility (Mr) of the GDP form of the EF-Tu complex” value [7] does the source give for CC/C=C/C(OC(N)=O)C(Cl)C(O)CC(=O)C(O)C(O)C(C)/C(Cl)=C/C=C/C=C(C)/C=C/C=C/C(=O)O[C@@H]1C[C@@H](C(=O)O)CC[C@@H]1O (some centres unmarked) [Enacyloxin IIa] here?
The value was “increased”.

With CC(=O)O[C@H]1C[C@@]2(C)[C@@H](C[C@@H](O)[C@H]3[C@@]4(C)CC[C@@H](O)[C@@H](C)[C@@H]4CC[C@@]32C)/C1=C(\CCC=C(C)C)C(=O)O [Fusidic acid] as the compound, how does the “effect on parasitaemias in mice” value ([3]; even at toxic dose levels, preliminary experiments) read?
Its value is “little effect on parasitaemias”.

And the “concentration at which maximum inhibition of radiotracer incorporation was achieved” value [5, 11]?
The value was 200 µM.

What does the source list for CNC(=O)C[C@@H]1NC(=O)c2csc(n2)-c2ccc(-c3nc(C4=N[C@H](C(=O)N5CCC[C@H]5C(N)=O)CO4)cs3)nc2-c2csc(n2)-c2csc(n2)[C@H]([C@@H](O)c2ccccc2)NC(=O)CNC(=O)c2nc(sc2COC)[C@H](C(C)C)NC(=O)c2nc1sc2C [GE2270]?
mobility (Mr) of the GDP form of the EF-Tu complex [7]: decreased; inhibition of radiotracer incorporation in blood cultures, compared with other antibiotics ([5]; 3H-hypoxanthine and 14C-isoleucine, blood cultures): more inhibitory in blood cultures than either kirromycin or thiostrepton

With COc1ccc(C[C@H]2NC[C@H](O)[C@H]2OC(C)=O)cc1 [anisomycin] as the compound, how does the “puromycin-shift of the hybridization signal, cytosolic rRNA” value [8] read?
Its value is “blocked the puromycin-induced shift”.

For COc1ccc(C[C@H](N)C(=O)N[C@H]2[C@@H](O)[C@H](n3cnc4c(N(C)C)ncnc43)O[C@@H]2CO)cc1 [puromycin], which “puromycin-shift of the hybridization signal, plastid rRNA” value [9] is on record?
The value was “caused a shift”.

And the “puromycin-shift of the hybridization signal, cytosolic rRNA” value [8]?
Its value is “caused a shift”.

For NCCC[C@H](N)CC(=O)N[C@H]1CNC(=O)[C@H]([C@H]2C[C@H](O)NC(N)=N2)NC(=O)/C(=C/NC(N)=O)NC(=O)[C@H](CO)NC(=O)[C@H](CO)NC1=O [viomycin] (β3hOrn-[Dap]SS[ΔAla(Z-3-ureido)][X1]; lactam 1-C), which “effect on P.falciparum (specificity control)” value ([5]; data not shown) is on record?
The value was “lack of effect”.

Which “effect on RNA, DNA and protein synthesis” value [10] does the source give for kirromycin here?
Its value is “blocks RNA synthesis without affecting DNA or protein synthesis”.

And the “mobility (Mr) of the GDP form of the EF-Tu complex” value [7]?
The value was “increased”.

And the “development of the infection in mice” value [3]?
Its value is “less effective in vivo than Aurodox”.

What about the “concentration at which maximum inhibition of radiotracer incorporation was achieved” value [5, 11] of the same compound?
Its value is 100 µM.
